Test results: US20240076620A1, “PRODUCTION OF SKELETAL MUSCLE CELLS AND SKELETAL MUSCLE TISSUE FROM PLURIPOTENT STEM CELLS” (Georg-August-Universität Göttingen Stiftung Öffentlichen …, priority 2019, published 2024)

Columns and labels:
Type in all cases: cell-based, human
[1] = tested on: engineered skeletal muscle tissue (ESM); experiment: Isometric force measurements of engineered skeletal muscle (ESM) matured with medium additives; conditions: for increase of the force of contraction: 100 Hz, vs no creatine; for contraction speed (+dFOC/dt): 100 Hz stimulation; for contraction speed (+dFOC/dt) / relaxation speed (−dFOC/dt): vs without added T3; for relaxation speed (−dFOC/dt): after 100 Hz stimulation
From the text: To further increase the function of engineered skeletal muscle, e.g. the contraction force can be increased by adding specific molecules. In this example, we specifically tested the enhancement of the contraction force, as well as contraction and relaxation times, in response to the addition of creatine and an increased concentration of thyroid hormone T3 (triiodo-L-thyronine (T3); from 3 to 100 nmol/L in the maturation medium in step iv). Here, the procedure according to Examples 1 and 2 was performed first. In contrast to Example 2, the maturation medium was supplemented with creatine or an increased concentration of T3 either between days 28 and 56 or between days 56 and 84 of the method.
The maturation medium was changed every other day and cultured under mechanical stretching for up to 9 weeks. The maturation medium comprised DMEM, with low glucose, GlutaMAX™ Supplement, pyruvate (Thermo Fisher Scientific), 1% N-2 Supplement (Thermo Fisher Scientific), 2% B-27 Supplement (Thermo Fisher Scientific), and optional antibiotics (e.g., 1% Pen/Strep-Thermo Fisher Scientific). 0.1 μM T3 (Sigma-Aldrich) or 1 mM creatine monohydrate (Sigma-Aldrich) were added to the maturation medium for a four-week period when indicated (e.g., day 28-56 or day 56-84).
The contractile function of engineered skeletal muscle tissue was measured under isometric conditions in an organ bath filled with gassed (5% CO2/95% 02) Tyrode solution (containing in mmol/L): 120 NaCl, 1 MgCl2, 0.2 CaCl2), 5.4 KCl, 22.6 NaHCO3, […], 5.6 glucose, and 0.56 ascorbate) at 37° C. To verify the force-length relationship—while ESMs were electrically stimulated at 1 Hz with 5 ms rectangular pulses of 200 mA—muscle length was increased by mechanical stretching in intervals of 125 μm, until the maximum contraction force was observed. At the length of maximum force generation, tetanic contraction force was assessed under defined stimulation frequencies (4-second stimulation at 10, 20, 40, 60, 80, and 100 Hz).

[2] = tested on: MYH3 (embryonic myosin heavy chain); experiment: Western blot of myosin heavy chain protein in ESM; conditions: addition of 0.1 μM T3; day 84; on average
Description: (§1) To investigate the molecular cause of this improved muscle function, the expression of different proteins was analyzed by Western blots. MYH2 is the heavy chain of the fast myosin (MYH2; fast myosin heavy chain); MYH7 is the heavy chain of the slow myosin (MYH7; slow myosin heavy chain); MYH3 is the heavy chain of the embryonic myosin (MYH3; embryonic myosin heavy chain). Protein expression was analyzed at day 84. […] Based on three independent experiments, the expression is increased at least 5-fold. The expression of MYH7 remained unchanged by an addition of 0.1 μM T3. […] These protein expression data support the functional data from FIGS. 10B, as the reduced response time of the engineered skeletal muscle can be explained by an increased expression of the fast myosin (MYH2) isoform by T3.
(§2) For protein isolation, engineered skeletal muscle was placed in an Eppendorf tube and snap frozen in liquid nitrogen. To the engineered skeletal muscle, 150 μl of ice-cold protein lysate buffer (2.38 g HEPES, 10.20 g NaCl, 100 ml glycerol, 102 mg MgCl2, 93 mg EDTA, 19 mg EGTA, 5 ml NP-40 in a total volume of 500 ml ddH2O) containing 1/10 phosphatase inhibitor (Roche) and 1/7 protease inhibitor (Roche) were added. A 7-mm stainless steel ball (Qiagen) was added to the Eppendorf tube, and the sample was homogenized using the TissueLyser II (Qiagen) for 30 seconds at 30 Hz and 4° C., followed by incubation on ice for 2 hours and then centrifugation at 12,000 rpm and 4° C. for 30 minutes. The supernatant was collected as a protein sample, and the protein concentration was measured by Bradford protein assay. […] Protein expression in ESM was analyzed by Western blot using the following primary antibodies: monoclonal embryonic myosin heavy chain 3 (1:500, F1.652, DSHB), slow myosin type heavy chain 7 (1:500, A4.951, DSHB), and fast myosin type heavy chain 2 (1:100, A4.74, DSHB). […] Protein quantification from the Western blot was performed using ImageJ.

[3] = tested on: MYH7 (slow myosin heavy chain); experiment: Western blot of myosin heavy chain protein in ESM; conditions: addition of 0.1 μM T3; day 84
Description: as §1, §2

[4] = tested on: MYH2 (fast myosin heavy chain); experiment: Western blot of myosin heavy chain protein in ESM; conditions: four-week addition of 0.1 μM T3; day 84; three independent experiments
Description: as §1, §2

[5] = 0.1 μM T3 between days 56 and 84

Row | SMILES | increase of the force of contraction ([1]; 1 mM creatine day 28 to day 56) | increase of the force of contraction ([1]; 1 mM creatine day 56 to day 84) | force of contraction (FOC) ([1]; maturation medium with 1 mM creatine day 28 to day 56, tetanic contraction at 100 Hz stimulation, without creatine 1.8 mN) | force of contraction (twitch tension) ([1]; maturation medium with 1 mM creatine day 56 to day 84, tetanic contraction at 100 Hz stimulation, without creatine 4.0 mN) | MYH3 expression [2] | expression of MYH7 [3] | protein expression of MYH2, increase [4] | contraction speed (+dFOC/dt) [1, 5] | relaxation speed (−dFOC/dt) [1, 5] | contraction speed (+dFOC/dt) ([1]; 0.1 μM T3 day 28 to day 56) | relaxation speed (−dFOC/dt) ([1]; 0.1 μM T3 day 28 to day 56)
1 | CN(CC(=O)O)C(=N)N [creatine] | 39% | 30% | 2.5 mN | 5.2 mN |  |  |  |  |  |  | 
2 | N[C@@H](Cc1cc(I)c(Oc2ccc(O)c(I)c2)c(I)c1)C(=O)O [T3, triiodo-L-thyronine] |  |  |  |  | reduced by approximately half | unchanged | at least 5 fold | decreased | decreased | decreased significantly | decreased significantly
